{"source": "patent US20080255206A1", "about": "“Rxr Agonists and Antagonists, Alone or in Combination with Ppar Ligands, in the Treatment of Metabolic and Cardiovascular Diseases” (priority 2005, published 2008)", "key": {"[1]": {"test_system": "myeloperoxidase (MPO) activity", "experiment": "Acute inflammation of mouse ears, MPO activity", "type": "in vivo, C57BL/6 mice", "settings": "TPA 0.005% alone, topical, 4 d", "protocol": "(§1) […] mice of the C57BL/6 strain are used. Inflammation is induced on mouse ears with either AtRA, 9-cis RA or TPA by topical application. Inflammation is measured objectively by determination of the activity of myeloperoxidase (MPO) being directly correlated to the infiltration of polymorphonuclear white blood cells and by the determination of mRNA expression of c-jun, a protein implicated in the AP-1 transduction pathway according to known methods, see e.g. P. L. Stanley et al., Skin Pharmacol. 4, 262-271 (1991) (MPO assay), N. Basset-Sequin et al., J. Invest. Dermatol. 94, 418-422 (1990), F. J. Rauscher et al., Cell 52, 471-480 […], P. Sassone-Corn et al., Nature 326, 507-510 (1987), and M. Pfahl, Endocr. Rev. 14, 651-658, 1993, which are incorporated by reference regarding the experimental method.\n(§2) In the “acute inflammation” test, mice are treated topically (epicutaneously), orally or intraperitoneally, daily for 4 days. In the “semi chronic inflammation” test, mice are treated topically according to the schedules given below. For each experiment, a group of at least 4 mice of both sexes are used in the defined condition, regarding placebo, vehicle control, compound, topical formulation, oral formulation, dosage and concentration. The topical vehicle consists of ethanol/PEG 400/water (3:1:1).\nThe anti-inflammatory effect of topical RXR antagonist compound 15 is tested by determination of myeloperoxidase activity in % of vehicle treated controls. For induction of inflammation 9-cis RA or TPA are applied topically to the skin, daily for 4 days. The RXR antagonist compound 15 (see Table 1) is administered topically one hour after the application of the inflammation inducing agent. The mice are sacrified 24 hours after the last treatment."}, "[2]": {"test_system": "myeloperoxidase (MPO) activity", "experiment": "Semi chronic inflammation of mouse ears, MPO activity", "type": "in vivo, C57BL/6 mice", "settings": "11 d", "protocol": "as §1, §2\n(§3) The anti-inflammatory effect of topical RXR antagonists is tested by determination of myeloperoxidase activity in % of vehicle controls. The effect of the RXR antagonist compound 15 is also compared with the well known anti-inflammatory effect of the two corticosteroids, clobetasol dipropionate and betamethasone propionate. For induction of inflammation, AtRA and TPA are applied topically to the skin and the administration of the test compounds, the RXR antagonist compound 15 and the two corticosteroids are given in the following order, according to the schedule, described in: Skin Pharmacol 1991; 4 (4): 262-271, Stanley P L. et.al.: RA or TPA is administered on days 0, 2, 4, 7 and 9, compound 15 or corticosteroids are administered twice daily on day 7, day 8 and day 9 and once on day 10 in the morning. The mice are sacrificed on day 10 in the afternoon."}, "c-Jun mRNA expression": {"test_system": "c-Jun mRNA expression", "experiment": "Semi chronic inflammation of mouse ears, c-Jun mRNA (northern blot)", "type": "in vivo, C57BL/6 mice", "protocol": "as §1, §3\nIn the same experiment, the expression of c-Jun mRNA is determined by northern blot and expressed in percent of the vehicle controls."}, "RXRγ": {"target": "T1, RXRγ (Homo sapiens, UniProt P48443)", "T1 sequence (P48443 1-463)": "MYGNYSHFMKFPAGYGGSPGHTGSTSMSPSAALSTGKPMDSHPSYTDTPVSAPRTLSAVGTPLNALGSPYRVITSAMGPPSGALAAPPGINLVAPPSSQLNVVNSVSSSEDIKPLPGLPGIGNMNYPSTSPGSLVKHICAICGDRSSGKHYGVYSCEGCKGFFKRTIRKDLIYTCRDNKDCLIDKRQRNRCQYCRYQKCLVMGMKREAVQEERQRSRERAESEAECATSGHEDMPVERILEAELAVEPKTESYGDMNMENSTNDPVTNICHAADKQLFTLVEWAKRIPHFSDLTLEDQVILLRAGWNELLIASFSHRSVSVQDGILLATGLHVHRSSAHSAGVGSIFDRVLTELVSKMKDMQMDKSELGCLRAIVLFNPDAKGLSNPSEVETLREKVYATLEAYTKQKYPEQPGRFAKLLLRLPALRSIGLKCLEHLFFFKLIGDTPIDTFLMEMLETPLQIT", "experiment": "Retinoid binding assay, RXRγ", "set-up": "made in house; host or cells: E. coli", "settings": "[3H] 9-cis retinoic acid 20 nM; read-out: Binding Affinity IC50 RXR γ", "description": "The DEF domains of RAR's and the full length RXR's, expressed in E.coli, are used to measure competitive retinoid binding. […] 9-cis retinoic acid (for RXR's), respectively. […] Separation of bound from free radioactivity is achieved by charcoal/dextran (RAR's) or by desalting columns (RXR's). […] Retinoid Activation Assays"}, "humans": {"test_system": "humans", "settings": "clinical trials by other authors; cited from earlier work"}, "[3]": {"settings": "TPA 0.005% + test compound 0.05% topical"}, "[4]": {"settings": "TPA 0.005% + test compound 0.05%"}}, "data": [{"compound": "CCCCCCCCCCCCCC(=O)O[C@@H]1[C@@H](C)[C@@]2(O)[C@@H](C=C(CO)C[C@]3(O)C(=O)C(C)=C[C@@H]23)[C@@H]2C(C)(C)[C@]12OC(C)=O", "note": "[TPA, 12-O-tetradecanoylphorbol-13-acetate]", "values": [{"measurement": "MPO activity (% vehicle treated mice)", "setting": "[1]", "value": "376 ± 72", "unit": "% vehicle treated mice"}, {"measurement": "MPO activity (% vehicle treated mice)", "setting": "[2]; TPA 0.005% alone, topical", "value": "572 ± 61", "unit": "% vehicle treated mice"}, {"measurement": "c-Jun mRNA expression (% of vehicle treated mice)", "setting": "c-Jun mRNA expression; TPA 0.005% alone", "value": "163 % of vehicle treated mice"}]}, {"compound": "Cc1cc2c(cc1C1(c3ccc(C(=O)O)cn3)CC1)C(C)(C)CCC2(C)C", "note": "[Compound 3, 6-[1-(3,5,5,8,8-Pentamethyl-5,6,7,8-tetrahydro-naphthalen-2yl)-cyclopropyl]-nicotinic acid, reference compound]", "values": [{"measurement": "IC50", "setting": "RXRγ", "value": 0.09, "unit": "µM"}, {"measurement": "Serum lipids in clinical trials (humans)", "setting": "humans", "value": "marked triglyceridemia"}]}, {"compound": "CCC(=O)O[C@]1(C(=O)CCl)[C@@H](C)C[C@H]2[C@@H]3CCC4=CC(=O)C=C[C@]4(C)[C@@]3(F)[C@@H](O)C[C@@]21C", "values": [{"measurement": "MPO activity (% vehicle treated mice)", "setting": "[2]; [3]", "value": "239 ± 43", "unit": "% vehicle treated mice"}, {"measurement": "c-Jun mRNA expression (% of vehicle treated mice)", "setting": "c-Jun mRNA expression; [4]", "value": "43 % of vehicle treated mice"}]}, {"compound": "betamethasone propionate", "values": [{"measurement": "MPO activity (% vehicle treated mice)", "setting": "[2]; [3]", "value": "257 ± 38", "unit": "% vehicle treated mice"}, {"measurement": "c-Jun mRNA expression (% of vehicle treated mice)", "setting": "c-Jun mRNA expression; [4]", "value": "24 % of vehicle treated mice"}]}, {"compound": "CC1=C(/C=C/C(C)=C/C=C/C(C)=C/C(=O)O)C(C)(C)CCC1", "note": "[At RA, all-trans retinoic acid]", "values": [{"measurement": "MPO activity (% vehicle treated mice)", "setting": "[2]; At RA 0.05% alone, topical", "value": "1371 ± 345", "unit": "% vehicle treated mice"}]}]}
